Organism: Rattus norvegicus
Assay: DrugMatrix - Regimen: Daily Repeat
Type: toxicity, organism-based, Sprague-Dawley
Set-up: regimen Daily Repeat, gender Male, age 6-8 weeks
Conditions: in vivo, po, route oral GAVAGE, vehicle 100 % WATER; for ABSOLUTE BASOPHIL / ABSOLUTE EOSINOPHIL / ABSOLUTE LYMPHOCYTE / ABSOLUTE MONOCYTE / ABSOLUTE SEGMENTED NEUTROPHIL / BASOPHIL / EOSINOPHIL / ERYTHROCYTE COUNT / HEMATOCRIT / HEMOGLOBIN / LEUKOCYTE COUNT / LYMPHOCYTE / MEAN CORPUSCULAR HEMOGLOBIN / MEAN CORPUSCULAR HEMOGLOBIN CONCENTRATION / MEAN CORPUSCULAR VOLUME / MONOCYTE / NEUTROPHIL / NUCLEATED RED BLOOD CELLS / PLATELET COUNT: tissue Blood; for ALANINE AMINOTRANSFERASE / ALBUMIN / ALKALINE PHOSPHATASE / ASPARTATE AMINOTRANSFERASE / BLOOD UREA NITROGEN / CARBON DIOXIDE / CHLORIDE / CHOLESTEROL / CREATINE PHOSPHOKINASE / CREATININE / GLUCOSE / LACTATE DEHYDROGENASE / LIPASE / PHOSPHORUS / POTASSIUM / SODIUM / TOTAL BILIRUBIN / TOTAL PROTEIN / URIC ACID: tissue Plasma
[1] = 0 mg/kg, 72 h, dose level Control, time 3 day
[2] = 0 mg/kg, 120 h, dose level Control, time 5 day
[3] = 0.07 mg/kg, 72 h, dose level Low, time 3 day

Cc1cc(C(C)(C)C)c(O)c(C)c1CC1=NCCN1 [OXYMETAZOLINE]
ABSOLUTE BASOPHIL [1]: 0 CELLS/uL | ABSOLUTE EOSINOPHIL [1]: 123.17 CELLS/uL | ABSOLUTE LYMPHOCYTE [1]: 12677.83 CELLS/uL | ABSOLUTE MONOCYTE [1]: 66.17 CELLS/uL | ABSOLUTE SEGMENTED NEUTROPHIL [1]: 1149.5 CELLS/uL | BASOPHIL [1]: 0% | EOSINOPHIL [1]: 0.83% | ERYTHROCYTE COUNT [1]: 5.26 x10E6/uL | HEMATOCRIT [1]: 33.07% | HEMOGLOBIN [1]: 13.43 G/DL | LEUKOCYTE COUNT [1]: 14.02 x10E3/uL | LYMPHOCYTE [1]: 90.17% | MEAN CORPUSCULAR HEMOGLOBIN [1]: 25.62 pg | MEAN CORPUSCULAR HEMOGLOBIN CONCENTRATION [1]: 40.65 G/DL | MEAN CORPUSCULAR VOLUME [1]: 63 fL | MONOCYTE [1]: 0.5% | NEUTROPHIL [1]: 8.5% | NUCLEATED RED BLOOD CELLS [1]: 0.17 /100WBC | PLATELET COUNT [1]: 1142.83 x10E3/uL | ALANINE AMINOTRANSFERASE [1]: 45.17 u/L | ALBUMIN [1]: 3.78 G/DL | ALKALINE PHOSPHATASE [1]: 340.17 u/L | ASPARTATE AMINOTRANSFERASE [1]: 77.33 u/L | BLOOD UREA NITROGEN [1]: 14.67 mg/dL | CARBON DIOXIDE [1]: 28.67 mmol/L | CHLORIDE [1]: 101.17 MEQ/L | CHOLESTEROL [1]: 77.67 mg/dL | CREATINE PHOSPHOKINASE [1]: 263.67 u/L | CREATININE [1]: 0.15 mg/dL | GLUCOSE [1]: 169.33 mg/dL | LACTATE DEHYDROGENASE [1]: 230 u/L | LIPASE [1]: 9.67 u/L | PHOSPHORUS [1]: 11.8 mg/dL | POTASSIUM [1]: 5.91 MEQ/L | SODIUM [1]: 142.88 MEQ/L | TOTAL BILIRUBIN [1]: 0.22 mg/dL | TOTAL PROTEIN [1]: 5.7 G/DL | URIC ACID [1]: 1.35 mg/dL | ABSOLUTE BASOPHIL [2]: 0 CELLS/uL | ABSOLUTE EOSINOPHIL [2]: 125 CELLS/uL | ABSOLUTE LYMPHOCYTE [2]: 13809 CELLS/uL | ABSOLUTE MONOCYTE [2]: 351 CELLS/uL | ABSOLUTE SEGMENTED NEUTROPHIL [2]: 1581.67 CELLS/uL | BASOPHIL [2]: 0% | EOSINOPHIL [2]: 0.67% | ERYTHROCYTE COUNT [2]: 5.53 x10E6/uL | HEMATOCRIT [2]: 34.83% | HEMOGLOBIN [2]: 13.9 G/DL | LEUKOCYTE COUNT [2]: 15.87 x10E3/uL | LYMPHOCYTE [2]: 87.5% | MEAN CORPUSCULAR HEMOGLOBIN [2]: 25.25 pg | MEAN CORPUSCULAR HEMOGLOBIN CONCENTRATION [2]: 40.08 G/DL | MEAN CORPUSCULAR VOLUME [2]: 63.05 fL | MONOCYTE [2]: 2.17% | NEUTROPHIL [2]: 9.67% | NUCLEATED RED BLOOD CELLS [2]: 0 /100WBC | PLATELET COUNT [2]: 1044 x10E3/uL | ALANINE AMINOTRANSFERASE [2]: 50.67 u/L | ALBUMIN [2]: 4.33 G/DL | ALKALINE PHOSPHATASE [2]: 395 u/L | ASPARTATE AMINOTRANSFERASE [2]: 86 u/L | BLOOD UREA NITROGEN [2]: 15.33 mg/dL | CARBON DIOXIDE [2]: 29.33 mmol/L | CHLORIDE [2]: 101.5 MEQ/L | CHOLESTEROL [2]: 71.33 mg/dL | CREATINE PHOSPHOKINASE [2]: 323.17 u/L | CREATININE [2]: 0.18 mg/dL | GLUCOSE [2]: 145.67 mg/dL | LACTATE DEHYDROGENASE [2]: 389.5 u/L | LIPASE [2]: 9.83 u/L | PHOSPHORUS [2]: 11.35 mg/dL | POTASSIUM [2]: 6.39 MEQ/L | SODIUM [2]: 142.77 MEQ/L | TOTAL BILIRUBIN [2]: 0.18 mg/dL | TOTAL PROTEIN [2]: 6.1 G/DL | URIC ACID [2]: 1.52 mg/dL | ABSOLUTE BASOPHIL [3]: 0 CELLS/uL | ABSOLUTE EOSINOPHIL [3]: 62.33 CELLS/uL | ABSOLUTE LYMPHOCYTE [3]: 13944.33 CELLS/uL | ABSOLUTE MONOCYTE [3]: 0 CELLS/uL | ABSOLUTE SEGMENTED NEUTROPHIL [3]: 1260 CELLS/uL | BASOPHIL [3]: 0% | EOSINOPHIL [3]: 0.33% | ERYTHROCYTE COUNT [3]: 5.43 x10E6/uL | HEMATOCRIT [3]: 34.37% | HEMOGLOBIN [3]: 13.87 G/DL | LEUKOCYTE COUNT [3]: 15.27 x10E3/uL | LYMPHOCYTE [3]: 91.67% | MEAN CORPUSCULAR HEMOGLOBIN [3]: 25.53 pg | MEAN CORPUSCULAR HEMOGLOBIN CONCENTRATION [3]: 40.33 G/DL | MEAN CORPUSCULAR VOLUME [3]: 63.33 fL | MONOCYTE [3]: 0% | NEUTROPHIL [3]: 8% | NUCLEATED RED BLOOD CELLS [3]: 0.33 /100WBC | PLATELET COUNT [3]: 1341.33 x10E3/uL | ALANINE AMINOTRANSFERASE [3]: 49.33 u/L | ALBUMIN [3]: 3.83 G/DL | ALKALINE PHOSPHATASE [3]: 309.33 u/L | ASPARTATE AMINOTRANSFERASE [3]: 74 u/L | BLOOD UREA NITROGEN [3]: 12.33 mg/dL | CARBON DIOXIDE [3]: 33.33 mmol/L | CHLORIDE [3]: 100.33 MEQ/L | CHOLESTEROL [3]: 68.67 mg/dL | CREATINE PHOSPHOKINASE [3]: 205.67 u/L | CREATININE [3]: 0.12 mg/dL | GLUCOSE [3]: 144.67 mg/dL | LACTATE DEHYDROGENASE [3]: 166.67 u/L | LIPASE [3]: 10 u/L | PHOSPHORUS [3]: 10.43 mg/dL | POTASSIUM [3]: 6.84 MEQ/L | SODIUM [3]: 142.8 MEQ/L | TOTAL BILIRUBIN [3]: 0.2 mg/dL | TOTAL PROTEIN [3]: 5.67 G/DL | URIC ACID [3]: 1.37 mg/dL
